From patent publication US8623377B2, “Joint-homing peptides and uses thereof” (University of Maryland, Baltimore, priority 2011, dated 2014)

Legend:
[1] = tested on: CD31-expressing endothelial cells from an arthritic rat joint; assay: Binding of fluorescein-labeled peptide to CD31-expressing endothelial cells from arthritic rat joint; type: cell-based
Description: FIG. 2A: Binding of specific phage encoding the peptide NQR or ADK to the vascular endothelium was visualized by immunohistochemical examination of the hind paw section of the rthritic rats using the anti-T7 phage antibody. The binding of phage was tested in the presence or absence of the corresponding synthetic peptide. BV, blood vessel, L, lumen. FIG. 2B: Arthritic rats were injected with specific phage (ADK phage, left; NQR phage, center; or RGD phage, right) in the presence or absence of the corresponding synthetic peptide, and the titer of the phage recovered from the synovial tissue was assessed. *P<0.01. FIG. 2C: CD31-expressing endothelial cells were isolated from arthritic rat joints (upper) or the liver (lower) and stained with DAPI (blue), FITC-labeled peptide NQR (green), or Alexa Fluor 594-labeled anti-rat CD31 antibody (red). Also shown is the staining overlay (merge) of green and red (yellow). The inset is an enlarged view of a single cell; original magnification, 20×. FIG. 2D: LPS-stimulated HUVECs were stained with DAPI and FITC-labeled peptide NQR and observed under a fluorescence microscope, original magnification, 100×. […]

[2] = tested on: adjuvant arthritis in Lewis rats; assay: Antiarthritic activity in the adjuvant arthritis (AA) model, arthritic score; type: in vivo, Lewis rat
Description: (§1) FIG. 3A: Group of arthritic Lewis rats (n=4 per group) were injected with a peptide (AD, NQR, or RGD) or PBS i.v. on the days indicated by the arrows either at the onset or just after the onset of arthritis. The its were monitored regularly for the disease severity, presented as “arthritic score”. […] The sections were graded for histopathological features associated with arthritis. B, bone; C, cartilage, JS, joint space; SIC, synovium-infiltrating cells.
(§2) The synthetic peptide corresponding to the selected phage-encoded peptide was diluted in PBS and injected i.v. into Lewis rats beginning either at the onset or just after the onset of arthritis after Mtb injection. The peptide was injected to rats on alternate days at a dose of 1 or 2 mg/kg body weight. A total of three or four injections were given to each rat. Control animals received an equal volume of PBS. All rats were graded regularly for clinical signs of arthritis (36). The hind paws of these rats were harvested and processed for histopathological examination.
AA was induced in Lewis rats by immunizing them with 1 mg/rat of heat-killed M. tuberculosis H37Ra (Mtb; Difco) in 200 μL of mineral oil (Sigma-Aldrich) via s.c. injection at the base of the tail. Beginning on day 7 after immunization, the rats were observed regularly for signs of arthritis in the paws. The severity of arthritis was evaluated based on erythema and swelling as described previously. The highest score for each paw was 4, and the total maximum score for each rat was 16. The course of AA in the Lewis rat involved the following phases: incubation (days 0-8), onset (days 9-11), peak (days 15-18), and recovery (days 21-27).

[3] = tested on: hind paw joints of arthritic Lewis rats; assay: Histopathological evaluation of hind paw joints of arthritic rats; type: in vivo, Lewis rat; conditions: H&E-stained hind paw sections
Description: as §1, §2
Hind paws of rats were harvested, skinned, and fixed with 10% phosphate buffered formalin (Fisher Scientific) for 3-7 d (1). […] Tissue sections (5 μm) were placed on a glass slide, stained with H&E (Sigma-Aldrich), and assessed for morphological changes and cellular infiltrates.

[4] = tested on: leukocyte infiltration into the joints of arthritic rats; assay: In vivo migration of PKH67-labeled leukocytes into the joints; set-up: species or system Lewis rat
[5] = tested on: ERK1/2; assay: VEGF-induced signaling in HUVECs, Western blot p-ERK1/2; type: cell-based, human; conditions: peptide 10, 50, 100 μg/mL 1 h, then VEGF 10 ng/mL 20 min
Description: FIG. 6A: HUVECs were stimulated with VEGF and treated with the indicated concentrations of peptides. Phosphorylated ERK1/2 and Akt, as well as total ERK1/2 and Akt, were detected by Western blot analysis. FIG. 6B: Thereafter, p-ERK1/2 and p-Akt were quantified by densitometry, normalized to total ERK1/2 (left) and Akt (right), respectively, and compared with cells in serum-free medium. The results of a representative experiment from a set of three independent experiments are shown. *P<0.05, compared with the positive control.
HUVECs were grown in F-12K medium in the presence of endothelial cell growth supplement (ECGS) (BD Biosciences) and 15% FBS. Confluent cells were starved in basal medium (without ECGS and FBS) for 6 h. Then the cells were pretreated for 1 h with different concentrations (10, 50, and 100 μg/mL) of a peptide (NQR, ADK, or RGD) in fresh basal medium, followed by treatment with VEGF (10 ng/mL) for another 20 min. The conditional medium was discarded, and the cells were lysed using a lysis buffer containing protease inhibitors and phosphatase inhibitors. The cell lysate was then centrifuged, and the resulting supernatant was used for analysis of signaling molecules using specific antibodies to human pERK1/2, ERK1/2, pAkt, Akt, and GAPDH (Cell Signaling Technology) by Western blot analysis. The intensity of the bands in the gel was quantified by densitometry. The levels of p-ERK1/2 and p-Akt were normalized to total ERK1/2 and Akt, respectively, and compared with cells in serum-free medium.

CLDNQRPKC (Synthetic peptide homing to joint in an animal) [NQR peptide, joint-homing phage-derived synthetic peptide]
binding of fluorescein-labeled peptide to joint-derived endothelial cells ([1]; CD31-expressing endothelial cells, arthritic rat joint): bound specifically to the joint-derived | colocalization of peptide with CD31 ([1]; joint-derived endothelial cells): colocalized with CD31 | difference in arthritic score versus PBS/ADK ([2]; from day 15 to day 27 (FIG. 3A center)): significant | difference in arthritic score versus PBS ([2]; from day 15 to day 27 (FIG. 3A right)): significant | suppression of the arthritic process ([2]; i.v. injection around the time of onset of arthritis, 1 or 2 mg/kg on alternate days): suppressed the arthritic process in a dose-dependent manner | down-modulation of arthritis ([2]; injected just after the onset of AA): effective in down-modulating arthritis | joint damage (histopathology) versus PBS-treated arthritic rats [3]: much less damage | cell type on which the effect on infiltration was more marked ([4]; CD3+ T cells vs CD11b/c+ myeloid cells, flow cytometry): more marked on CD3+ T cells than on CD11b/c+ myeloid cells | leukocyte infiltration into the joints ([4]; versus nontreated arthritic or ADK-treated arthritic rats, 24 h after cell transfer): significantly less leukocyte infiltration | effect on VEGF-induced pERK [5]: induced a decrease in pERK
